Assay results taken from article PMC12169104, “Towards the development of supramolecular self-associating amphiphiles as antibiofilm agents against Pseudomonas aeruginosa and Candida albicans biofilms” (Journal of Materials Chemistry. B, 2025).

Assay: Protein binding in human plasma by equilibrium dialysis
Assay type: in vitro ADME
Procedure: Section S5: In vitro and in vivo studies
These studies were performed by Contract Research Organisation (CRO) Pharmaron. The methodology provided within the ESI is published within the express permission of this organisation.
The percentage of a compound recovered during the analysis process should be 100 %; any deviation from this value indicates experimental limitations such as unintended potential non-specific binding events to experimental equipment, solubility issues, etc.
In vitro Absorption, Distribution and Metabolism studies methods:
Protein Binding measurements in human plasma by using equilibrium dialysis:
The fraction unbound in human plasma (P-KB, Ltd People’s hospital of Shandong) was measured using 96-well Equilibrium Dialysis Plate (HTDialysis LLC, Gales Ferry, CT). Human plasma containing 5 µM test compound was dialysed against dialysis buffer (PBS, pH 7.4) with initial samples taken to allow for assessment of plasma stability and recovery before the plate was incubated for 6 hours at 37°C at 5%
CO2. Samples were removed at 6 hours, and all samples were matrix matched and quenched with acetonitrile containing internal standard. Samples were centrifuged at 3,220g for 30 minutes to precipitate protein and enable sampling of supernatant prior to appropr iate dilution for liquid chromatography mass -spectrometry (LC -MS/MS) analysis.
Samples were analysed using a Shimadzu Nexera LC Binary Gradient LC -30AD (Shimadzu Inc, Kyoto), coupled to a Sciex 6500+ (AB Inc., Illinois). Separation was achieved using a XSelect HSS T3 (2.5µm, 2.1 x 50 mm) (Waters Ltd., Wilmslow) column at a temperature of 40°C and a binary mobile phase gradient at a flow rate of 0.8 mL/min. Initial LC conditions comprised of 95% solvent A (0.1% formic acid in water), 5% solvent B (0.1% formic acid in acetonitrile); this was ramped to 98% B at 0.5 min, held for 0.4 min and then immediately returned to initial conditions. Sample analysis was by electrospray ionisation in combined with multiple reaction monitoring in positive ionisation mode. The ionisation […]

With `O=C(O)CNc1c(Nc2ccc(C(F)(F)F)cc2)c(=O)c1=O` [SSA 5] the “% Stability” value (human plasma, 6 hours) was 99.5%, the recovery at 6 h, 5 µM (human, plasma, pH 7.4, SSA recovered from the assay after 6 hours) was 102% and the fraction unbound at 6 h, 5 µM (pH 7.4, human plasma proteins, 5 µM, 6 hours incubation at 37 °C, read-out: % Bound (converted)) was 0.076.
